In article PMC5353780, “A novel benzo-heterocyclic amine derivative N30 inhibits influenza virus replication by depression of Inosine-5’-Monophospate Dehydrogenase activity” (Virology Journal, 2017):
Structures can show the parent of a compound that is named as a salt. Where two headings read alike, the source gives them in different places.

Experiments:
A/FortMonmouth/1/1947 = assay: CPE assay in MDCK cells; assay type: cell-based, Influenza A virus (H1N1); conditions: for IC50: Influenza A virus, CPE, MDCK cells; for SI: TC50/IC50
BV/shenzhen/155/2005 = assay: CPE assay in MDCK cells; assay type: cell-based, influenza B virus; conditions: for IC50: Influenza B virus, CPE, MDCK cells; for SI: TC50/IC50
A/wuhan/359/1995 = assay: CPE assay in MDCK cells; assay type: cell-based, Influenza A virus (H3N2); conditions: for IC50: Influenza A virus, CPE, MDCK cells; for SI: TC50/IC50
BY/fujianxinluo/54/2006 = assay: CPE assay in MDCK cells; assay type: cell-based, influenza B virus; conditions: for IC50: Influenza B virus, CPE, MDCK cells; for SI: TC50/IC50
EV71(SZ98) = assay: CPE assay; assay type: cell-based, Human enterovirus 71; conditions: for IC50: Enterovirus A, EV71, CPE; for SI: TC50/IC50
EV71(BrCr) = assay: CPE assay; assay type: cell-based, Human enterovirus 71; conditions: for IC50: Enterovirus A, EV71, CPE; for SI: TC50/IC50
Vero cells [1] = assay: Cytotoxicity test (CCK); conditions: 50% toxicity concentration
viral hemagglutinin = test system: viral hemagglutinin; design: species or system Influenza A virus; conditions: maximum concentration 40 μM, 10-fold dilutions; Fig. 2b
Procedure: Briefly, the diluted IAV were mixed with diluted compounds in a U bottom 96-well plate. After incubation at 4 °C for 40 min, equal volume of 1.2% chicken erythrocyte suspension was added to each well. Then, the erythrocyte aggregation was evaluated by visual inspection after 40 min [17, 18].

MDCK cells = conditions: dog, 48 h
NA of IAV A/FM1/1947 = assay: NA inhibition assay (MUNANA); assay type: biochemical, Influenza A virus; conditions: Fig. 2a
[2] = in vivo; cited from earlier work
CVB3 (strain Nancy) = assay: CPE assay; assay type: cell-based, Coxsackie virus B; conditions: for IC50: Enterovirus B, CVB3, CPE
[3] = human, in vivo, cited from earlier work
CVB5 (strain Faulkner) = assay: CPE assay; assay type: cell-based, Coxsackie virus B; conditions: for IC50: Enterovirus B, CVB5, CPE
CVB1 (strain Conn-5) = assay: CPE assay; assay type: cell-based, Coxsackie virus B; conditions: for IC50: Enterovirus B, CVB1, CPE
CVB6 (strain Schmitt) = assay: CPE assay; assay type: cell-based, Coxsackie virus B; conditions: for IC50: CPE
IMPDH type II [4] = assay: IMPDH type II expression by western blot in MDCK cells; assay type: cell-based, canine; conditions: 24 h treatment, Fig. 3a
CVB4 (strain J.V.B.) = assay: CPE assay; assay type: cell-based, Coxsackie virus B; conditions: for IC50: Enterovirus B, CVB4, CPE
CVB2 (strain Ohio-1) = assay: CPE assay; assay type: cell-based, Coxsackie virus B; conditions: for IC50: Enterovirus B, CVB2, Ohio-1, CPE
RSV = assay type: cell-based, respiratory syncytial virus (long strain)
Vero cells [5] = conditions: African green monkey, 48 h
IAV = conditions: in vitro, at low micromolar concentrations; cited from earlier work
[6] = test system: IAV A/Fort Monmouth/1/1947 (H1N1); assay: IAV M2 protein and RNA expression in MDCK cells (western blot, qRT-PCR); assay type: cell-based, Influenza A virus (H1N1); conditions: 0.01 MOI, 24 h post-infection, Fig. 1c and d
Procedure: Fig. 1 Effects of N30 on IAV M2 protein and RNA expression in MDCK. a Chemical structure of N30. b The effect of N30 on viabilities of MRC-5, Vero, MDCK and Hep2 cells, which were measured by CCK. c The effect of N30 with different concentrations on IAV M2 protein and RNA expression. d The effect of N30 on IAV M2 protein and RNA expression compared with reference drugs. MDCK cells were infected with IAV A/Fort Monmouth/1/1947(H1N1) (0.01 multiplicity of infection [MOI, plaque-forming units (PFU)/cell]) for 2 hours, and treated with different concentrations of N30 or reference drugs for 24 h. Total mRNA and protein were extracted at 24 h post-infection, and analyzed by qRT-PCR and Western blotting respectively. […]
Cells were collected at 24 h post-infection and lysed in M-PER mammalian protein extraction reagent containing halt protease inhibitor cocktail (Thermo Fisher Scientific), sample proteins were subjected to SDS-PAGE and transferred to PVDF membrane (Millipore). After blocked with 5% milk, the membranes were incubated with antibodies against Influenza M2, β-actin (Santa Cruz), CVB3 VP1 (Millipore), IMPDH type II (Sigma-Aldrich), RSV M2 (Santa Cruz) and coronavirus (FIPV-70, Santa Cruz) respectively, then, the HRP-conjugated secondary antibodies were incubated and the signals were detected using an enhanced chemiluminescence (ECL) kit (GE Healthcare Life Sciences). […]

[7] = In vivo toxicity, body weight in mice; design: species or system female Kun Ming mice; conditions: 100 mg/kg by oral administration in mice
Procedure: To determine the in vivo toxicity of N30 preliminarily, female Kun Ming mice were gavaged 100 mg/kg and 50 mg/kg N30 twice a day. Six mice enrolled in each group were gavaged with N30 or vehicle for continuous administration for 14 days, then weighted at day 0, 5, 10 and 14 respectively, shown in Table 5.

IMPDH type II [8] = biological target: T1, IMPDH type II (Homo sapiens, UniProt P12268); assay: Enzymatic assay of IMPDH type II; assay type: biochemical; conditions: after N30 treatment; Fig. 3b
T1 construct: purchased Sigma-Aldrich
Procedure: The enzymatic assay was employed to evaluate the inhibitory effect of N30 on the activity of IMPDH type II by following the increase in formation of nicotinamide-adenine dinucleotide (NADH), which absorbance was read at 340 nm on Enspire at 30 °C. The 200 μL assay buffer contained 1 M Tris/HCl (pH 8.8), 1 M KCl, 30 mM EDTA, 10 μL IMPDH type II (Sigma-Aldrich), 1 mM DTT and NAD (Sigma-Aldrich). The reaction was started after addition of IMP, with final concentrations was 1 mM [19].

Row | Structure (SMILES) | IC50 (A/FortMonmouth/1/1947) [µM] | IC50 (BV/shenzhen/155/2005) [µM] | IC50 (A/wuhan/359/1995) [µM] | IC50 (BY/fujianxinluo/54/2006) [µM] | IC50 (EV71(SZ98)) [µM] | SI (EV71(SZ98)) | IC50 (EV71(BrCr)) [µM] | SI (EV71(BrCr)) | SI (A/FortMonmouth/1/1947) | hemagglutination inhibition (aggregation of chicken erythrocytes) (viral hemagglutinin) | SI (BV/shenzhen/155/2005) | TC50 (MDCK cells) [µM] | SI (A/wuhan/359/1995) | SI (BY/fujianxinluo/54/2006) | effect on NA activity (NA of IAV A/FM1/1947) | IC50 (CVB3 (strain Nancy)) [µM] | IC50 (CVB5 (strain Faulkner)) [µM] | IC50 (CVB1 (strain Conn-5)) [µM] | IC50 (CVB6 (strain Schmitt)) [µM] | IMPDH expression (IMPDH type II [4]) | other results
1 | NC12CC3CC(CC(C3)C1)C2 [AH, amantadine hydrochloride] | 0.65 ± 0.59 | > 200 | 15.6 ± 0.31 | > 200 | – | – | – | – | – | – | – | – | – | – | – | – | – | – | – | – | –
2 | CCOC(=O)c1ccc(OCCC2CCN(c3ccc(C)nn3)CC2)cc1 [Pirodavir] | – | – | – | – | 0.27 ± 0.27 | 120.6 | 0.16 | 203.56 | – | – | – | – | – | – | – | – | – | – | – | – | TC50 (Vero cells [1]; Tables 3 and 4, CCK, 48 h): 32.57 ± 0.55 µM
3 | CCC(CC)O[C@@H]1C=C(C(=O)O)C[C@H](N)[C@H]1NC(C)=O [OC, oseltamivir carboxylate] | 0.25 ± 0.01 | 1.02 ± 0.08 | 0.12 ± 0.01 | 0.56 ± 0.02 | – | – | – | – | >200 | did not show the inhibitory effect | >49.02 | > 50 | >416.67 | >89.28 | significantly reduce the activity of NA in a dose dependent manner | – | – | – | – | – | –
4 | COc1c(C)c2c(c(O)c1C/C=C(\C)CCC(=O)OCCN1CCOCC1)C(=O)OC2 [MMF, mycophenolate mofetil] | – | – | – | – | – | – | – | – | – | – | – | – | – | – | – | – | – | – | – | – | side effects [2]: diarrhea, leucopenia, sepsis, and vomiting
5 | NC(=O)c1ncn([C@@H]2O[C@H](CO)[C@@H](O)[C@H]2O)n1 [RBV, Ribavirin] | 1.64 ± 0.72 | 1.7 ± 0.57 | 8.23 ± 6.31 | 2.48 ± 0.53 | – | – | – | – | – | did not show the inhibitory effect | – | – | – | – | – | 3130 ± 1210 | 1200 ± 530 | 2370 ± 360 | 4560 ± 2410 | no inhibition | bilirubin values ([3]; po): elevated the bilirubin values; anemia [3]: transient anemia; IC50 (CVB4 (strain J.V.B.)): 2470 ± 1600 µM; IC50 (CVB2 (strain Ohio-1)): 2270 ± 180 µM; TC50 (Vero cells [1]; Table 3): >20000 µM
6 | O=[N+]([O-])c1ccc(CNc2ccc3ncsc3c2)cc1 [N30, N-(4-nitrophenylmethyl) benzothiazole-6-amine] | 1.93 ± 0.16 | 1.16 ± 0.69 | 1.31 ± 0.87 | 0.7 ± 0.18 | 10.6 ± 3.76 | 8.42 | 8.04 ± 3.77 | 11.14 | 34.54 | could not inhibit the aggregation of chicken erythrocytes | 57.47 | 66.67 | 50.89 | 95.24 | little inhibitory effect | 1.82 ± 2.76 | 2.54 ± 1.43 | 6.28 ± 1.61 | 6.81 ± 1.89 | have not been lessened | SI (CVB3 (strain Nancy); TC50/IC50): 49.21; SI (CVB5 (strain Faulkner); TC50/IC50): 35.26; expression of the viral proteins (RSV; 10 μM N30, RSV-infected Hep2 cells): almost completely inhibit; RSV M2 mRNA and protein expressions (RSV; RSV-infected Hep2 cells, 0.025 MOI, 24 h, Fig. 4b): markedly decreased; SI (CVB1 (strain Conn-5); TC50/IC50): 14.26; SI (CVB6 (strain Schmitt)): 13.15; IC50 (CVB4 (strain J.V.B.)): 10.4 ± 3.13 µM; SI (CVB4 (strain J.V.B.); TC50/IC50): 8.64; TC50 (Vero cells [5]): 89.56 ± 4.25 µM; activity towards IAV (IAV): potent activity; amounts of IAV M2 protein and RNA [6]: dosage dependent relationship; acute toxicity [7]: little acute toxicity; IC50 (CVB2 (strain Ohio-1)): 11.7 ± 2.94 µM; SI (CVB2 (strain Ohio-1); TC50/IC50): 7.69; reduction of the enzymatic reaction rate of IMPDH (IMPDH type II [8]): 38.18%
